Test results published in ChEMBL document CHEMBL3286238, “Synthesis of a novel legumain-cleavable colchicine prodrug with cell-specific toxicity” (Bioorg Med Chem, 2014).

What was measured:
HEK293 = assay: Cytotoxicity against HEK293 cells after 48 hrs by MTS assay; format: cell-based, Homo sapiens; conditions: for EC50: Homo sapiens, HEK293, 48 h; for EC25: human, hek293, 48 h
[1] = Cytotoxicity against human M38L cells after 48 hrs by MTS assay; format: cell-based; conditions: for EC50: Homo sapiens, M38L; for EC25: human, m38l
[2] = Potency index, ratio of EC50 for valyl colchicine to EC50 for compound against HEK293 cells after 48 hrs by MTS assay; format: cell-based; conditions: human, read-out: Ratio EC50

| Structure (SMILES) | EC50 (HEK293) [nM] | EC25 (HEK293) [nM] | EC50 [1] [nM] | EC25 [1] [nM] | selectivity ratio at 48 h [2] |
| --- | --- | --- | --- | --- | --- |
| COc1cc2c(c(OC)c1OC)-c1ccc(OC)c(=O)cc1[C@@H](NC(=O)[C@@H](N)C(C)C)CC2.Cl | 300 | 80 | 300 | 200 |  |
| COc1cc2c(c(OC)c1OC)-c1ccc(OC)c(=O)cc1[C@@H](NC(C)=O)CC2 [COLCHICINE] | 30 | 20 | 30 | 20 | 10 |
